Consider 16 molecules from patent US20250034135A1, “ANTI-APOPTOTIC PROTEIN BCL-2 INHIBITOR, PHARMACEUTICAL COMPOSITION AND USES THEREOF” (HANGZHOU HEALZEN THERAPEUTICS CO., LTD., priority 2021, published 2025).

Some results are limits rather than exact numbers.

The assay deals with BCL2 (Homo sapiens (Human), UniProt P10415). The assay is described as follows: Molecular level activity test of anti-apoptotic protein BCL2 (HTRF, binding to Bim peptide). The settings on record: HTRF, binding of BCL2 to Bim peptide; read-out: BCL2 nM (inhibitory activity, IC50). An outline of the steps: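 Competition binding format: recombinant His-BCL2 and a biotin-Bim peptide are incubated with compound for 1 h, followed by 4 h at room temperature with HTRF detection antibodies.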
Chain of BCL2 (P10415 whole entry): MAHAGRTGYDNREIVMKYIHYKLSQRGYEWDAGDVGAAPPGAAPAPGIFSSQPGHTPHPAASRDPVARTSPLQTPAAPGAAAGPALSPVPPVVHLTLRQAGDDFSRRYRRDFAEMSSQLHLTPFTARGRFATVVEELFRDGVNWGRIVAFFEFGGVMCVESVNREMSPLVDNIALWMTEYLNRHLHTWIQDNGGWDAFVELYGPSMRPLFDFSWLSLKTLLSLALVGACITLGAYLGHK
(In general: Time-resolved FRET reads energy transfer from a long-lived donor to a nearby acceptor.)
Take `CC(C)c1ccccc1[C@@H]1CN(Cc2ccc(C3CC3)cc2)CCN1C1CC2(CCN(c3ccc(C(=O)NS(=O)(=O)c4cc([N+](=O)[O-])c(NC[C@H]5CC[C@](C)(O)CC5)c5c4OCO5)c(Oc4cnc5[nH]ccc5c4)c3)CC2)C1` [compound 178, 2-((1H-pyrrolo[2,3-b]pyrid-5-yl)oxy)-4-(2-((R)-4-(4-cyclopropylbenzyl)-2-(2-isopropylphenyl)piperazin-1-yl)-7-azaspiro[3.5]non-7-yl)-N-((7-((((1r, 4r)-4-hydroxy-4-methylcyclohexyl)methyl)amino)-6-nitrobenzo[d][1,3]dioxocyclopent-4-yl)sulfonyl)benzamide]: the IC50 is below 10 nM. The same measure for `COc1cc(CN2CCN(C3CC4(CCN(c5ccc(C(=O)NS(=O)(=O)c6cc([N+](=O)[O-])c(NC[C@H]7CC[C@](C)(O)CC7)c7c6OCO7)c(Oc6cnc7[nH]ccc7c6)c5)CC4)C3)[C@H](c3ccccc3C(C)C)C2)ccc1C1CC1` [compound 179, 2-((1H-pyrrolo[2,3-b]pyrid-5-yl)oxy)-4-(2-((R)-4-(4-cyclopropyl-3-methoxybenzyl)-2-(2-isopropylphenyl)piperazin-1-yl)-7-azaspiro[3.5]non-7-yl)-N-((7-((((1r, 4r)-4-hydroxy-4-methylcyclohexyl)methyl)amino)-6-nitrobenzo[d][1,3]dioxocyclopent-4-yl)sulfonyl)benzamide]: below 10 nM; for `COc1cc(CN2CCN(C3CC4(CCN(c5ccc(C(=O)NS(=O)(=O)c6cc([N+](=O)[O-])c(NC[C@H]7CC[C@](C)(O)CC7)c7c6OCO7)c(Oc6cnc7[nH]ccc7c6)c5)CC4)C3)[C@H](c3ccccc3C(C)C)C2)cc2cc(C)oc12` [compound 180]: below 10 nM; for `COc1ccc(CN2CCN(C3CC4(CCN(c5ccc(C(=O)NS(=O)(=O)c6cc([N+](=O)[O-])c(NCC7(F)CCOCC7)c7c6OCCO7)c(Oc6cnc7[nH]ccc7c6)c5)CC4)C3)[C@H](c3ccccc3C(C)C)C2)cc1` [compound 181]: below 10 nM. As for `COc1ccc(CN2CCN(C3CC4(CCN(c5ccc(C(=O)NS(=O)(=O)c6cc([N+](=O)[O-])c(NC[C@H]7CC[C@](C)(O)CC7)c7c6OCCO7)c(Oc6cnc7[nH]ccc7c6)c5)CC4)C3)[C@H](c3ccccc3C(C)C)C2)cc1` [compound 182, 2-((1H-pyrrolo[2,3-b]pyrid-5-yl)oxy)-N-((8-((((1r, 4r)-4-hydroxy-4-methylcyclohexyl)methyl)amino)-7-nitro-2,3-dihydrobenzo[b][1,4]dioxan-5-yl)sulfonyl)-4-(2-((R)-2-(2-isopropylphenyl)-4-(4-methoxybenzyl)piperazin-1-yl)-7-azaspiro[3.5]non-7-yl)benzamide], the figure is below 10 nM.

As to `COc1ccc(CN2CCN(C3CC4(CCN(c5ccc(C(=O)NS(=O)(=O)c6cc([N+](=O)[O-])c(NC[C@H]7COCCO7)c7c6OCCO7)c(Oc6cnc7[nH]ccc7c6)c5)CC4)C3)[C@H](c3ccccc3C(C)C)C2)cc1` [compound 183, N-((8-((((S)-1,4-dioxan-2-yl)methyl)amino)-7-nitro-2,3-dihydrobenzo[b][1,4]dioxan-5-yl)sulfonyl)-2-((1H-pyrrolo[2,3-b]pyrid-5-yl)oxy)-4-(2-((R)-2-(2-isopropylphenyl)-4-(4-methoxybenzyl)piperazin-1-yl)-7-azaspiro[3.5]non-7-yl)benzamide], the IC50 was below 10 nM. Regarding `COc1cc(CN2CCN(C3CC4(CCN(c5cc(Oc6cnc7[nH]ccc7c6)c(C(=O)NS(=O)(=O)c6ccc(NCC7(F)CCOCC7)c([N+](=O)[O-])c6)cc5F)CC4)C3)[C@H](c3ccccc3C(C)C)C2)ccc1C(C)C` [compound 194, (R)-2-((1H-pyrrolo[2,3-b]pyrid-5-yl)oxy)-5-fluoro-N-((4-(((4-fluorotetrahydro-2H-pyran-4-yl)methyl)amino)-3-nitrophenyl)sulfonyl)-4-(2-(4-(4-isopropyl-3-methoxybenzyl)-2-(2-isopropylphenyl)piperazin-1-yl)-7-azaspiro[3.5]non-7-yl)benzamide], the IC50 is below 10 nM.

With `CC(C)c1ccccc1[C@@H]1CN(Cc2ccc(N(C)C)cc2)CCN1C1CC2(CCN(c3cc(Oc4cnc5[nH]ccc5c4)c(C(=O)NS(=O)(=O)c4ccc(NCC5(F)CCOCC5)c([N+](=O)[O-])c4)cc3F)CC2)C1` [compound 198, (R)-2-((1H-pyrrolo[2,3-b]pyrid-5-yl)oxy)-4-(2-(4-(4-(dimethylamino)benzyl)-2-(2-isopropylphenyl)piperazin-1-yl)-7-azaspiro[3.5]non-7-yl)-5-fluoro-N-((4-(((4-fluorotetrahydro-2H-pyran-4-yl)methyl)amino)-3-nitrophenyl)sulfonyl)benzamide], the IC50 is below 10 nM. As for `CC(C)c1ccccc1[C@@H]1CN(Cc2ccc(C#N)cc2)CCN1C1CC2(CCN(c3cc(Oc4cnc5[nH]ccc5c4)c(C(=O)NS(=O)(=O)c4ccc(NCC5(F)CCOCC5)c([N+](=O)[O-])c4)cc3F)CC2)C1` [compound 199, (R)-2-((1H-pyrrolo[2,3-b]pyrid-5-yl)oxy)-4-(2-(4-(4-cyanobenzyl)-2-(2-isopropylphenyl)piperazin-1-yl)-7-azaspiro[3.5]non-7-yl)-5-fluoro-N-((4-(((4-fluorotetrahydro-2H-pyran-4-yl)methyl)amino)-3-nitrophenyl)sulfonyl)benzamide], the figure is below 10 nM; as for `CC(=O)Nc1ccc(CN2CCN(C3CC4(CCN(c5cc(Oc6cnc7[nH]ccc7c6)c(C(=O)NS(=O)(=O)c6ccc(NCC7(F)CCOCC7)c([N+](=O)[O-])c6)cc5F)CC4)C3)[C@H](c3ccccc3C(C)C)C2)cc1` [compound 200, (R)-2-((1H-pyrrolo[2,3-b]pyrid-5-yl)oxy)-4-(2-(4-(4-acetylaminobenzyl)-2-(2-isopropylphenyl)piperazin-1-yl)-7-azaspiro[3.5]non-7-yl)-5-fluoro-N-((4-(((4-fluorotetrahydro-2H-pyran-4-yl)methyl)amino)-3-nitrophenyl)sulfonyl)benzamide], below 10 nM. The same measure for `CC(C)c1ccccc1[C@@H]1CN(Cc2ccc(NS(C)(=O)=O)cc2)CCN1C1CC2(CCN(c3cc(Oc4cnc5[nH]ccc5c4)c(C(=O)NS(=O)(=O)c4ccc(NCC5(F)CCOCC5)c([N+](=O)[O-])c4)cc3F)CC2)C1` [compound 201, (R)-2-((1H-pyrrolo[2,3-b]pyrid-5-yl)oxy)-5-fluoro-N-((4-(((4-fluorotetrahydro-2H-pyran-4-yl)methyl)amino)-3-nitrophenyl)sulfonyl)-4-(2-(2-(2-isopropylphenyl)-4-(4-(methylsulfonylamino)benzyl)piperazin-1-yl)-7-azaspiro[3.5]non-7-yl)benzamide]: below 10 nM; for `COc1cc(CN2CCN(C3CC4(CCN(c5cc(Oc6cnc7[nH]ccc7c6)c(C(=O)NS(=O)(=O)c6ccc(NCC7(F)CCOCC7)c([N+](=O)[O-])c6)cc5F)CC4)C3)[C@H](c3ccccc3C(C)C)C2)cc2cc(C)oc12` [compound 202, (R)-2-((1H-pyrrolo[2,3-b]pyrid-5-yl)oxy)-5-fluoro-N-((4-(((4-fluorotetrahydro-2H-pyran-4-yl)methyl)amino)-3-nitrophenyl)sulfonyl)-4-(2-(2-(2-isopropylphenyl)-4-((7-methoxy-2-methylbenzofuran-5-yl)methyl)piperazin-1-yl)-7-azaspiro[3.5]non-7-yl)benzamide]: below 10 nM.

As for `COc1ccc(CN2CCN(C3CC4(CCN(c5cc(Oc6cnc7[nH]ccc7c6)c(C(=O)NS(=O)(=O)c6ccc(NCC7(F)CCOCC7)c([N+](=O)[O-])c6)cc5F)CC4)C3)[C@H](c3ccccc3C(C)C)C2)c2c1OCCO2` [compound 206, (R)-2-((1H-pyrrolo[2,3-b]pyrid-5-yl)oxy)-5-fluoro-N-((4-(((4-fluorotetrahydro-2H-pyran-4-yl)methyl)amino)-3-nitrophenyl)sulfonyl)-4-(2-(2-(2-isopropylphenyl)-4-(8-methoxy-2,3-dihydrobenzo[b][1,4-dioxan-5-yl)methyl)piperazin-1-yl)-7-azaspiro[3.5]non-7-yl)benzamide], the IC50 was below 10 nM. `CC(C)c1ccccc1[C@@H]1CN(Cc2cccc3c2OCCO3)CCN1C1CC2(CCN(c3cc(Oc4cnc5[nH]ccc5c4)c(C(=O)NS(=O)(=O)c4ccc(NCC5(F)CCOCC5)c([N+](=O)[O-])c4)cc3F)CC2)C1` [compound 208, (R)-2-((1H-pyrrolo[2,3-b]pyrid-5-yl)oxy)-4-(2-(4-((2,3-dihydrobenzo[b][1,4]dioxan-5-yl)methyl)-2-(2-isopropylphenyl)piperazin-1-yl)-7-azaspiro[3.5]non-7-yl)-5-fluoro-N-((4-(((4-fluorotetrahydro-2H-pyran-4-yl)methyl)amino)-3-nitrophenyl)sulfonyl)benzamide]: the IC50 is below 10 nM. As for `CC(C)c1ccccc1[C@@H]1CN(Cc2cnn(C(C)C)c2)CCN1C1CC2(CCN(c3cc(Oc4cnc5[nH]ccc5c4)c(C(=O)NS(=O)(=O)c4ccc(NCC5(F)CCOCC5)c([N+](=O)[O-])c4)cc3F)CC2)C1` [compound 210, (R)-2-((1H-pyrrolo[2,3-b]pyrid-5-yl)oxy)-5-fluoro-N-((4-(((4-fluorotetrahydro-2H-pyran-4-yl)methyl)amino)-3-nitrophenyl)sulfonyl)-4-(2-(4-((1-isopropyl-1H-pyrazol-4-yl)methyl)-2-(2-isopropylphenyl)piperazin-1-yl)-7-azaspiro[3.5]non-7-yl)benzamide], the figure is below 10 nM; as for `CC(C)c1ccccc1[C@@H]1CN(Cc2ccncc2)CCN1C1CC2(CCN(c3cc(Oc4cnc5[nH]ccc5c4)c(C(=O)NS(=O)(=O)c4ccc(NCC5(F)CCOCC5)c([N+](=O)[O-])c4)cc3F)CC2)C1` [compound 211, (R)-2-((1H-pyrrolo[2,3-b]pyrid-5-yl)oxy)-5-fluoro-N-((4-(((4-fluorotetrahydro-2H-pyran-4-yl)methyl)amino)-3-nitrophenyl)sulfonyl)-4-(2-(2-(2-isopropylphenyl)-4-(pyrid-4-ylmethyl)piperazin-1-yl)-7-azaspiro[3.5]non-7-yl)benzamide], below 10 nM.

A word on the IC50: it is the point on the concentration scale where inhibition reaches its midpoint.
